Data reported in patent US6352703B1, “Compositions and methods for detecting and killing termites” (Board of Supervisors of Louisiana State University and …, priority 1997, dated 2002).

Columns and labels:
Reticulitermes spp. = assay: Trail-following bioassay; type: in vivo
Procedure: (§1) C. formosanus workers were used in the initial bioassay for trail-following behavior. The trail-following bioassay was conducted on two overlapped pencil circles of radius 3 cm. The circumference of each circle passed through the center of the other circle. Each sample was streaked along one of the circles with a 4 μl-micropipette on nonabsorptive paper. A solvent (control) was streaked along the overlapping circle. After the solvent evaporated, one worker was placed in the center of overlap between the two circles. The arena was covered with a red plastic container to reduce visible light and extraneous air flow. To score the worker's activity, one point was given for each continuous 3 cm traveled by a termite over a one minute period. Three replications were performed for each fraction. A new termite was used and new circles were drawn for each trial.
(§2) Trail-following bioassays with standard 2-phenoxyethanol followed procedures that were essentially identical to those for the HPLC fraction screening bioassay described above, except that each trial was replicated 10 times; and that workers and soldiers of both C. formosanus and Reticulitermes spp. were tested. Four concentrations of 2-phenoxyethanol, 0.32, 0.032, 0.0032, 0.00032 μg/cm were used in the bioassays.

C. formosanus = assay: Trail-following bioassay; type: in vivo, Coptotermes formosanus Shiraki
Procedure: as §1, §2

Mucor spp. fungus [1] = assay: Antifungal filter paper disk test, trial 1 (Sabouraud dextrose agar); type: cell-based
Procedure: Mucor was isolated from a Formosan termite nest in our laboratory, a nest originally collected from a cottonwood tree in New Orleans, La. The fungus comprised a white mat that covered large areas of the nest that had been exposed to air and water. Fungus was scraped from the nest and suspended in distilled, de-ionized water with a Pasteur pipette. This suspension was streaked on Sabouraud dextrose agar (“SDA”) (Difco Laboratories, Detroit, Mich.) in 100×15 mm plates containing 20 mL SDA. Pure cultures were obtained from individual colonies on these plates as needed. Cultures were maintained on SDA plates in a 27° C. incubator without light until used.
Filter paper disks (Whatman #1, 1.5 cm) were treated with naphthalene, butylated hydroxytoluene (BHT), dioctyl phthalate, or adipic dioctyl ester, at rates of 2 μg, 20 μg, or 200 μg, dissolved in 100 μL hexane. Controls were treated with hexane alone. For each treatment, just prior to testing for antifungal properties, 1 mL of the hexane solution and ten filter paper disks were placed in a vial, and N2 was used to evaporate the hexane.
A suspension was prepared by scraping Mucor conidia (spores) from the culture plates, and mixing into distilled, deionized water with a Pasteur pipette. A thin layer of this suspension was spread over the surface of each of 130 SDA plates by placing each plate onto an inoculation turntable (Fisher Scientific, Hampton, N.H.), pipetting 0.2 mL of the suspension into the center of the plate, spinning the turntable, and spreading the suspension onto the agar with a bent glass rod. The plates were allowed to dry for two hours. A treated filter paper disk was then placed in the center of each plate (10 plates/treatment), and the plates were incubated at 27° C. The extent to which each filter paper disk was covered by fungus was determined by visual inspection (by the method described in greater detail below) after four, five, and six days.
(§3) Fungal growth on each filter paper disk was recorded by making tracings of the disks, inking in areas with visible fungal growth. The fraction of each disk covered by fungus was measured by making photocopy enlargements of these drawings, cutting out the enlarged disks, weighing the entire circle, cutting out the inked areas of the circle (corresponding to fungal growth), and weighing the latter. The fraction of each circle covered with fungus was then calculated as the ratio of these weights. (The weight of the photocopy toner was negligible.)
(§4) Coverage of filter paper disks was analyzed by the ANOVA procedure (SAS Institute, Version 6.11, Cary, N.C.). Tukey's Studentized Range (HSD) Test was used for comparison of mean separations (α=0.05).

Mucor spp. fungus [2] = assay: Antifungal filter paper disk test, trial 2 (cornmeal agar, sealed plates); type: cell-based
Procedure: A second trial was conducted with filter papers treated with naphthalene, BHT, or 2,6-di-t-butyl-4-methyl-phenol (“DBP”). A fungal suspension was prepared as in the first trial. Spore concentrations were determined with a counting chamber (Petroff-Hauser, Hauser Scientific Partnership, Horsham, Pa.). Concentrations were adjusted to approximately 10^7 spores/mL. In the first trial fungus grew on SDA quickly, forming a thick mat that soon filled the entire petri dish. Therefore, in the second trial cornmeal agar (CMA, Difco Laboratories, Detroit, Mich.) was used to slow the growth of the fungus during the six-day observation period. A thin layer of the spore suspension was spread over the surface of each of 24 cornmeal agar plates using a turntable and bent glass rod, as previously described.
(§5) Filter paper disks were treated with naphthalene, BHT, or DBP at rates of 2 μg, 20 μg, or 200 μg, prepared as in the first trial. On each plate were placed four filter paper disks spaced equidistant from one another (one disk containing each of the three application rates of one of the test compounds, and one disk containing only the hexane control). Each plate was then covered and sealed with parafilm to reduce the release of volatile compounds. The concentration of naphthalene in the headspace was 0.04 μg/cm^3; except in trial 3 below, in which the concentration was 34.6 μg/cm^3, about 700 times the concentration we have observed in termite nest materials. The growth of fungus on and around each filter paper disk was recorded three, four, and five days after treatment. The experiment was then repeated, increasing the rates of naphthalene, BHT, and DBP to 200 μg, 600 μg, and 1000 μg (trial 3).
as §3, §4

Mucor spp. fungus [3] = assay: Antifungal filter paper disk test, trial 3 (cornmeal agar, sealed plates, increased rates); type: cell-based
Procedure: A second trial was conducted with filter papers treated with naphthalene, BHT, or 2,6-di-t-butyl-4-methyl-phenol (“DBP”). A fungal suspension was prepared as in the first trial. Spore concentrations were determined with a counting chamber (Petroff-Hauser, Hauser Scientific Partnership, Horsham, Pa.). Concentrations were adjusted to approximately 10^7 spores/mL. In the first trial fungus grew on SDA quickly, forming a thick mat that soon filled the entire petri dish. […] A thin layer of the spore suspension was spread over the surface of each of 24 cornmeal agar plates using a turntable and bent glass rod, as previously described.
as §5, with “The growth of fungus on and around each filter paper disk was recorded three, four, and five days after treatment.” left out
as §3, §4

[4] = trial 2, 0 μg disk (hexane only) on the same sealed plate as the compound's treated disks
[5] = trial 3, 0 μg disk (hexane only) on the same sealed plate as the compound's treated disks

Compound: OCCOc1ccccc1 [2-phenoxyethanol]
- Trail-following behavior (Reticulitermes spp.; 0.00032 μg/cm): Limited trail-following activity
- Trail-following behavior (Reticulitermes spp.; Reticulitermes spp. workers and soldiers, 0.32, 0.032 and 0.0032 μg/cm): elicited trail-following behaviors
- Trail-following behavior (C. formosanus; 0.00032 μg/cm): Limited trail-following activity
- Trail-following behavior (C. formosanus; C. formosanus workers and soldiers, 0.32, 0.032 and 0.0032 μg/cm): elicited trail-following behaviors

Compound: CCCCCCCCOC(=O)CCCCC(=O)OCCCCCCCC [Adipic dioctyl ester, adipic dioctyl ester]
- Fraction Covered, Day 4 (mean percentage of filter paper disk surface covered by fungus) (Mucor spp. fungus [1]; trial 1, rate 2 μg per disk): 44%
- Fraction Covered, Day 5 (mean percentage of filter paper disk surface covered by fungus) (Mucor spp. fungus [1]; trial 1, rate 2 μg per disk): 83%
- Fraction covered, Day 6 (mean percentage of filter paper disk surface covered by fungus) (Mucor spp. fungus [1]; trial 1, rate 2 μg per disk): 94%
- Fraction Covered, Day 4 (mean percentage of filter paper disk surface covered by fungus) (Mucor spp. fungus [1]; trial 1, rate 20 μg per disk): 20%
- Fraction Covered, Day 5 (mean percentage of filter paper disk surface covered by fungus) (Mucor spp. fungus [1]; trial 1, rate 20 μg per disk): 80%
- Fraction covered, Day 6 (mean percentage of filter paper disk surface covered by fungus) (Mucor spp. fungus [1]; trial 1, rate 20 μg per disk): 62%
- Fraction Covered, Day 4 (mean percentage of filter paper disk surface covered by fungus) (Mucor spp. fungus [1]; trial 1, rate 200 μg per disk): 20%
- Fraction Covered, Day 5 (mean percentage of filter paper disk surface covered by fungus) (Mucor spp. fungus [1]; trial 1, rate 200 μg per disk): 75%
- Fraction covered, Day 6 (mean percentage of filter paper disk surface covered by fungus) (Mucor spp. fungus [1]; trial 1, rate 200 μg per disk): 91%

Compound: Cc1cc(C(C)(C)C)c(O)c(C(C)(C)C)c1 [DBP, 2,6-di-t-butyl-4-methyl-phenol]
- Fraction Covered, Day 3 (mean percentage of filter paper disk surface covered by fungus) (Mucor spp. fungus [2]; [4]): 96%
- Fraction Covered, Day 4 (mean percentage of filter paper disk surface covered by fungus) (Mucor spp. fungus [2]; [4]): 100%
- Fraction Covered, Day 5 (mean percentage of filter paper disk surface covered by fungus) (Mucor spp. fungus [2]; [4]): 100%
- Fraction Covered, Day 3 (mean percentage of filter paper disk surface covered by fungus) (Mucor spp. fungus [2]; trial 2, rate 2 μg per disk): 98%
- Fraction Covered, Day 4 (mean percentage of filter paper disk surface covered by fungus) (Mucor spp. fungus [2]; trial 2, rate 2 μg per disk): 99%
- Fraction Covered, Day 5 (mean percentage of filter paper disk surface covered by fungus) (Mucor spp. fungus [2]; trial 2, rate 2 μg per disk): 99%
- Fraction Covered, Day 3 (mean percentage of filter paper disk surface covered by fungus) (Mucor spp. fungus [2]; trial 2, rate 20 μg per disk): 92%
- Fraction Covered, Day 4 (mean percentage of filter paper disk surface covered by fungus) (Mucor spp. fungus [2]; trial 2, rate 20 μg per disk): 95%
- Fraction Covered, Day 5 (mean percentage of filter paper disk surface covered by fungus) (Mucor spp. fungus [2]; trial 2, rate 20 μg per disk): 98%
- Fraction Covered, Day 3 (mean percentage of filter paper disk surface covered by fungus) (Mucor spp. fungus [2]; trial 2, rate 200 μg per disk): 81%
- Fraction Covered, Day 4 (mean percentage of filter paper disk surface covered by fungus) (Mucor spp. fungus [2]; trial 2, rate 200 μg per disk): 91%
- Fraction Covered, Day 5 (mean percentage of filter paper disk surface covered by fungus) (Mucor spp. fungus [2]; trial 2, rate 200 μg per disk): 99%
- Fraction Covered, Day 3 (mean percentage of filter paper disk surface covered by fungus) (Mucor spp. fungus [3]; [5]): 40%
- Fraction Covered, Day 4 (mean percentage of filter paper disk surface covered by fungus) (Mucor spp. fungus [3]; [5]): 100%
- Fraction Covered, Day 5 (mean percentage of filter paper disk surface covered by fungus) (Mucor spp. fungus [3]; [5]): 100%
- Fungal coverage of treated disks (Mucor spp. fungus [3]; trial 3, fourth day): ~100%
- Fraction Covered, Day 3 (mean percentage of filter paper disk surface covered by fungus) (Mucor spp. fungus [3]; trial 3, rate 200 μg per disk): 0%
- Fraction Covered, Day 4 (mean percentage of filter paper disk surface covered by fungus) (Mucor spp. fungus [3]; trial 3, rate 200 μg per disk): 94%
- Fraction Covered, Day 5 (mean percentage of filter paper disk surface covered by fungus) (Mucor spp. fungus [3]; trial 3, rate 200 μg per disk): 93%
- Fraction Covered, Day 3 (mean percentage of filter paper disk surface covered by fungus) (Mucor spp. fungus [3]; trial 3, rate 600 μg per disk): 1%
- Fraction Covered, Day 4 (mean percentage of filter paper disk surface covered by fungus) (Mucor spp. fungus [3]; trial 3, rate 600 μg per disk): 100%
- Fraction Covered, Day 5 (mean percentage of filter paper disk surface covered by fungus) (Mucor spp. fungus [3]; trial 3, rate 600 μg per disk): 100%
- Fraction Covered, Day 3 (mean percentage of filter paper disk surface covered by fungus) (Mucor spp. fungus [3]; trial 3, rate 1000 μg per disk): 0%
- Fraction Covered, Day 4 (mean percentage of filter paper disk surface covered by fungus) (Mucor spp. fungus [3]; trial 3, rate 1000 μg per disk): 91%
- Fraction Covered, Day 5 (mean percentage of filter paper disk surface covered by fungus) (Mucor spp. fungus [3]; trial 3, rate 1000 μg per disk): 97%

Compound: CCCCCCCCOC(=O)c1ccccc1C(=O)OCCCCCCCC [Dioctyl phthalate, dioctyl phthalate]
- Fraction Covered, Day 4 (mean percentage of filter paper disk surface covered by fungus) (Mucor spp. fungus [1]; trial 1, rate 2 μg per disk): 67%
- Fraction Covered, Day 5 (mean percentage of filter paper disk surface covered by fungus) (Mucor spp. fungus [1]; trial 1, rate 2 μg per disk): 78%
- Fraction covered, Day 6 (mean percentage of filter paper disk surface covered by fungus) (Mucor spp. fungus [1]; trial 1, rate 2 μg per disk): 89%
- Fraction Covered, Day 4 (mean percentage of filter paper disk surface covered by fungus) (Mucor spp. fungus [1]; trial 1, rate 20 μg per disk): 32%
- Fraction Covered, Day 5 (mean percentage of filter paper disk surface covered by fungus) (Mucor spp. fungus [1]; trial 1, rate 20 μg per disk): 49%
- Fraction covered, Day 6 (mean percentage of filter paper disk surface covered by fungus) (Mucor spp. fungus [1]; trial 1, rate 20 μg per disk): 88%
- Fraction Covered, Day 4 (mean percentage of filter paper disk surface covered by fungus) (Mucor spp. fungus [1]; trial 1, rate 200 μg per disk): 57%
- Fraction Covered, Day 5 (mean percentage of filter paper disk surface covered by fungus) (Mucor spp. fungus [1]; trial 1, rate 200 μg per disk): 69%
- Fraction covered, Day 6 (mean percentage of filter paper disk surface covered by fungus) (Mucor spp. fungus [1]; trial 1, rate 200 μg per disk): 82%
